Among the data in patent US10072001B2, “Tank-binding kinase inhibitor compounds” (Gilead Sciences, Inc., priority 2014, dated 2018) are IC50 values, retold here.

The target in one experiment is TBK1 (Homo sapiens (Human), UniProt Q9UHD2). The experiment in a line: TR-FRET kinase assay, TBK1. Particulars: read-out: TBK1-IC50; full length recombinant TBK1 2.5 nM, 2x Km ATP, 1 μM peptide, 240 min at 25° C.; geometric mean of minimum four determinations. (Time-resolved FRET reads energy transfer from a long-lived donor to a nearby acceptor.)
Another experiment concerns the target IKKε (Homo sapiens (Human), UniProt Q14164). The experiment can be described thus: TR-FRET kinase assay, IKKε. It is filed as biochemical. To be noted: full length recombinant IKKε 0.3 nM, 2x Km ATP, 1 μM peptide, 240 min at 25° C.; geometric mean of minimum four determinations. An excerpt:
Biological Assay for TBK1 and IKKs:

Each structure is given as a SMILES string. pIC50: −log10 of the molar value.

Chain of IKKε (Q14164 whole entry): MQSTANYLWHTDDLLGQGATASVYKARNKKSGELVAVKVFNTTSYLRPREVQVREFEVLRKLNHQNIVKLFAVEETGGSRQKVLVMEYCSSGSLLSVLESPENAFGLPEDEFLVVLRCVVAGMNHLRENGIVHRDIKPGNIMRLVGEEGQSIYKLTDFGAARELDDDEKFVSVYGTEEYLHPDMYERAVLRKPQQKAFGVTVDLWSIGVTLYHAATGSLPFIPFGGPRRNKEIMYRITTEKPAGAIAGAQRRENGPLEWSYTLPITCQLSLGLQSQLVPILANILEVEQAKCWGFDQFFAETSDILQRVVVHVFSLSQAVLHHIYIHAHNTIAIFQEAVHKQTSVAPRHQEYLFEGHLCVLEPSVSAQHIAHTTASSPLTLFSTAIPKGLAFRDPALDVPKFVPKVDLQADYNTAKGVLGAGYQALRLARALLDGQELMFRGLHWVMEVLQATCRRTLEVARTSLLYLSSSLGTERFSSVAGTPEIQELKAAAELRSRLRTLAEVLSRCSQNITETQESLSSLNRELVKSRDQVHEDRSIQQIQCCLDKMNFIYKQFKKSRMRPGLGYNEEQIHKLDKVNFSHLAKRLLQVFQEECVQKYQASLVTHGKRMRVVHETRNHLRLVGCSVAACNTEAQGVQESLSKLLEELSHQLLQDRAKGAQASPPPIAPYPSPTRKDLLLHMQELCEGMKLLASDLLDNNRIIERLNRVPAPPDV
Chain of TBK1 (Q9UHD2 whole entry): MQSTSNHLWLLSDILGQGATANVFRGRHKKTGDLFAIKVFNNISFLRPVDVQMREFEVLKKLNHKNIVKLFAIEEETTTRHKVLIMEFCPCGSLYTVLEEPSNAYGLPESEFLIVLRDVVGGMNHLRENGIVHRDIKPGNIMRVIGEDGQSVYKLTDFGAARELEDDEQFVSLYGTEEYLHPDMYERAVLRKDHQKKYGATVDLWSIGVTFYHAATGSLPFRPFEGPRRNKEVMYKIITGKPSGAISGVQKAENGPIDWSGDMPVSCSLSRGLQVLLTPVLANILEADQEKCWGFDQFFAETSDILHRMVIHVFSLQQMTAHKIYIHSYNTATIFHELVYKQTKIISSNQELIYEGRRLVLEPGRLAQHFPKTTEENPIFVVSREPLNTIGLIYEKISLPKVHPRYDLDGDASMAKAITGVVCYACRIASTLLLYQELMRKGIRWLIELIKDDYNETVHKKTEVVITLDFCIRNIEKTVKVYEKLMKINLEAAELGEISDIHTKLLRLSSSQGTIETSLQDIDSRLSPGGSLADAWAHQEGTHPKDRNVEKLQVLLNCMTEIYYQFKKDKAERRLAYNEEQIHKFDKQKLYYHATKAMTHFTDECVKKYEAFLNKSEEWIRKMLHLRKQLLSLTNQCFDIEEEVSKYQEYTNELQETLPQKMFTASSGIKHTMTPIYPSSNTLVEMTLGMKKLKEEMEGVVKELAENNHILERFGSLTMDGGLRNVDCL
Method for TBK1: Enzymatic activity of IKKε and TBK1 was measured using a homogeneous time resolved fluorescence resonance energy transfer (TR-FRET) assay that monitors enzyme dependent phosphorylation of a biotinylated serine/threonine peptide substrate. […] TBK1 and IKKs were expressed and purified as full length recombinant proteins. Detection reagents for the assay were purchased from Cisbio. […] After an assay reaction time of 240 minutes at 25° C., reactions were terminated with EDTA.
Amount of phosphorylated peptide was determined by the addition of 125 nM streptavidin XL665 and europium cryptate labeled anti-phospho monoclonal antibody and the resulting TR-FRET signal was recorded on an Envision plate reader (Ex: 340 nm; Em: 615/665 nm; 100 μs delay and 200 μs read window). […] All IC50 values represent geometric mean values of a minimum of four determinations.

Regarding `N#Cc1cc(-c2ccnc3[nH]c(C4CC4)cc23)ccc1OC1CCOCC1` [Example 50, 5-(2-cyclopropyl-1H-pyrrolo[2,3-b]pyridin-4-yl)-2-((tetrahydro-2H-pyran-4-yl)oxy)benzonitrile], the pIC50 (usually −log10 of the IC50, conventionally taken in molar units) at TBK1 was 6.19; at IKKε, 6.35.
As for `N#Cc1cc(-c2ncnc3[nH]c(-c4ccc(N5CCN(C6COC6)CC5)cc4)cc23)ccc1OC1CCOCC1` [Example 105, 5-(6-(4-(4-(oxetan-3-yl)piperazin-1-yl)phenyl)-7H-pyrrolo[2,3-d]pyrimidin-4-yl)-2-((tetrahydro-2H-pyran-4-yl)oxy)benzonitrile], the values for the pIC50 at TBK1 and at IKKε were 9.06 and 8.26, respectively.
As for `COc1cc(-c2cc3c(-c4ccc(OC5CCN(C(=O)CO)CC5)c(C#N)c4)ncnc3[nH]2)ccc1N1CCOCC1` [Example 125, 2-((1-(2-hydroxyacetyl)piperidin-4-yl)oxy)-5-(6-(3-methoxy-4-morpholinophenyl)-7H-pyrrolo[2,3-d]pyrimidin-4-yl)benzonitrile], the pIC50 was 9.05 at TBK1 and 8.58 at IKKε.
The like results for `N#Cc1cc(-c2c(F)cnc3[nH]c(-c4ccc(N5CCOCC5)cc4)cc23)ccc1OC1CCOCC1` [Example 47, 5-(5-fluoro-2-(4-morpholinophenyl)-1H-pyrrolo[2,3-b]pyridin-4-yl)-2-((tetrahydro-2H-pyran-4-yl)oxy)benzonitrile] were, in that order, 8.39 and 7.76.
As to `N#Cc1cc(-c2ncnc3[nH]c(-c4cccc(C(N)=O)c4)cc23)ccc1OC1CCOCC1` [Example 171, 3-(4-(3-cyano-4-((tetrahydro-2H-pyran-4-yl)oxy)phenyl)-7H-pyrrolo[2,3-d]pyrimidin-6-yl)benzamide], the pIC50 at TBK1 was 8.19; on IKKε, 7.97.
The like results for `N#Cc1cc(-c2ccnc3[nH]c(-c4ccc(N5CCOCC5)cc4)cc23)ccc1F` [Example 58, 2-fluoro-5-(2-(4-morpholinophenyl)-1H-pyrrolo[2,3-b]pyridin-4-yl)benzonitrile] were, in that order, 8.22 and below 6.00.
Take `N#Cc1cc(-c2ncnc3[nH]c(-c4ccc(N5CCOCC5)cc4)nc23)ccc1OCC1CC1` [Example 202, 2-(cyclopropylmethoxy)-5-(8-(4-morpholinophenyl)-9H-purin-6-yl)benzonitrile]: the pIC50 on TBK1 and on IKKε was below 6.00 throughout.
In the case of `CC(C)(O)c1ccc(-c2cc3c(-c4ccc(O[C@@H]5CCNC5)c(C#N)c4)ccnc3[nH]2)cc1` [Example 151, (R)-5-(2-(4-(2-hydroxypropan-2-yl)phenyl)-1H-pyrrolo[2,3-b]pyridin-4-yl)-2-(pyrrolidin-3-yloxy)benzonitrile], the pIC50 is 7.37 on TBK1 and 6.92 at IKKε.
The like results for `N#Cc1cc(-c2ccnc3[nH]c(-c4ccc5[nH]ccc5c4)cc23)ccc1OC1CCOCC1` [Example 45, 5-(2-(1H-indol-5-yl)-1H-pyrrolo[2,3-b]pyridin-4-yl)-2-((tetrahydro-2H-pyran-4-yl)oxy)benzonitrile] were, in that order, 7.49 and 7.49.
As for `N#Cc1cc(-c2ccnc3[nH]c(-c4ccc(C(=O)C(F)(F)F)cc4)cc23)ccc1OC1CCOCC1` [Example 237, 2-((tetrahydro-2H-pyran-4-yl)oxy)-5-(2-(4-(2,2,2-trifluoroacetyl)phenyl)-1H-pyrrolo[2,3-b]pyridin-4-yl)benzonitrile], the values for the negative logarithm of the IC50 (pIC50) on TBK1 and on IKKε were 7.94 and 7.53, respectively.
The like results for `N#Cc1cc(-c2ccnc3[nH]c(-c4cccc(N5CCOCC5)c4)nc23)ccc1OC1CCOCC1` [Example 308, 5-(2-(3-morpholinophenyl)-3H-imidazo[4,5-b]pyridin-7-yl)-2-((tetrahydro-2H-pyran-4-yl)oxy)benzonitrile] were, in that order, 7.60 and 7.74.
The like results for `N#Cc1cc(-c2ncnc3[nH]c(-c4ccc(N5CCOCC5)c(F)c4)cc23)ccc1OC1CCN(C(=O)CO)CC1` [Example 158, 5-(6-(3-fluoro-4-morpholinophenyl)-7H-pyrrolo[2,3-d]pyrimidin-4-yl)-2-((1-(2-hydroxyacetyl)piperidin-4-yl)oxy)benzonitrile] were, in that order, 8.99 and 8.62.
The like results for `N#Cc1cc(-c2ccnc3[nH]c(-c4cc[nH]c(=O)c4)cc23)ccc1OC1CCOCC1` [Example 217, 5-(2-(2-oxo-1,2-dihydropyridin-4-yl)-1H-pyrrolo[2,3-b]pyridin-4-yl)-2-((tetrahydro-2H-pyran-4-yl)oxy)benzonitrile] were, in that order, 7.71 and 7.46.
`CS(=O)(=O)N1CCC(Oc2ccc(-c3ncnc4[nH]c(-c5ccc(N6CCOCC6)cc5)nc34)cc2C#N)CC1` [Example 253, 2-((1-(methylsulfonyl)piperidin-4-yl)oxy)-5-(8-(4-morpholinophenyl)-9H-purin-6-yl)benzonitrile]: the negative logarithm of the IC50 (pIC50) on TBK1 was 7.70; at IKKε it was 7.40.
The like results for `COc1cc(-c2cc3c(-c4ccc(OC5CCOCC5)c(C#N)c4)ncnc3[nH]2)ccc1N1CCN(S(C)(=O)=O)CC1` [Example 135, 5-(6-(3-methoxy-4-(4-(methylsulfonyl)piperazin-1-yl)phenyl)-7H-pyrrolo[2,3-d]pyrimidin-4-yl)-2-((tetrahydro-2H-pyran-4-yl)oxy)benzonitrile] were, in that order, 8.64 and 8.13.
For the compound `CN(C)C(=O)/C=C/c1cc2c(-c3ccc(OC4CCOCC4)c(C#N)c3)ccnc2[nH]1` [Example 179, 3-(4-(3-cyano-4-((tetrahydro-2H-pyran-4-yl)oxy)phenyl)-1H-pyrrolo[2,3-b]pyridin-2-yl)-N,N-dimethylacrylamide], the pIC50 at TBK1 is 6.99; on IKKε, 7.16.
The like results for `N#Cc1cc(-c2ncnc3[nH]c(-c4ccc(N5CCN(CC(F)F)CC5)cc4)cc23)ccc1OC1CCNCC1` [Example 265, 5-(6-(4-(4-(2,2-difluoroethyl)piperazin-1-yl)phenyl)-7H-pyrrolo[2,3-d]pyrimidin-4-yl)-2-(piperidin-4-yloxy)benzonitrile] were, in that order, 7.79 and 7.23.
The like results for `N#Cc1cc(-c2ncnc3[nH]c(-c4ccc(N5CCOCC5)cc4)cc23)ccc1OCC1CC1` [Example 102, 2-(cyclopropylmethoxy)-5-(6-(4-morpholinophenyl)-7H-pyrrolo[2,3-d]pyrimidin-4-yl)benzonitrile] were, in that order, below 6.00 and below 6.00.
The like results for `N#Cc1cc(-c2ccnc3[nH]c(-c4ccc(C5(O)COC5)cc4)cc23)ccc1OC1CCOCC1` [Example 8, 5-(2-(4-(3-hydroxyoxetan-3-yl)phenyl)-1H-pyrrolo[2,3-b]pyridin-4-yl)-2-((tetrahydro-2H-pyran-4-yl)oxy)benzonitrile] were, in that order, 8.51 and 8.16.
Take `N#Cc1cc(-c2ncnc3[nH]c(-c4ccc(N5CCOCC5)cc4)nc23)ccc1O[C@@H]1CCNC1` [Example 207, (R)-5-(8-(4-morpholinophenyl)-9H-purin-6-yl)-2-(pyrrolidin-3-yloxy)benzonitrile]: the pIC50 was 7.80 at TBK1 and 6.95 at IKKε.
As to `N#Cc1cc(-c2ncnc3[nH]c(-c4ccc(N5CCOCC5)cc4)cc23)ccc1OC1CCNCC1` [Example 218, 5-(6-(4-morpholinophenyl)-7H-pyrrolo[2,3-d]pyrimidin-4-yl)-2-(piperidin-4-yloxy)benzonitrile], the figures for the pIC50 on TBK1 and on IKKε were 7.51 and 6.85, respectively.
The like results for `N#Cc1cc(-c2ccnc3[nH]c(-c4cccnc4)cc23)ccc1OC1CCOCC1` [Example 7, 5-(2-(pyridin-3-yl)-1H-pyrrolo[2,3-b]pyridin-4-yl)-2-((tetrahydro-2H-pyran-4-yl)oxy)benzonitrile] were, in that order, 7.93 and 7.77.
Turning to `N#Cc1cc(-c2ccnc3[nH]c(-c4ccc(N)nc4)cc23)ccc1OC1CCOCC1` [Example 11, 5-(2-(6-aminopyridin-3-yl)-1H-pyrrolo[2,3-b]pyridin-4-yl)-2-((tetrahydro-2H-pyran-4-yl)oxy)benzonitrile], the pIC50 on TBK1 is 8.26; at IKKε it was 8.02.
Consider `N#Cc1cc(-c2ccnc3[nH]c(C(=O)NC4CC4)cc23)ccc1OC1CCOCC1` [Example 59, 4-(3-cyano-4-((tetrahydro-2H-pyran-4-yl)oxy)phenyl)-N-cyclopropyl-1H-pyrrolo[2,3-b]pyridine-2-carboxamide], for which the pIC50 on TBK1 is 7.10; at IKKε, 7.26.
The like results for `N#Cc1cc(-c2ccnc3[nH]c(-c4ccc(N5CCOCC5)cc4)nc23)ccc1O[C@@H]1CCN(C(=O)CO)C1` [Example 196, (R)-2-((1-(2-hydroxyacetyl)pyrrolidin-3-yl)oxy)-5-(2-(4-morpholinophenyl)-3H-imidazo[4,5-b]pyridin-7-yl)benzonitrile] were, in that order, 8.35 and 7.89.
The like results for `CC(C)(O)c1ccc(-c2nc3c(-c4ccc(OC5CCOCC5)c(C#N)c4)ncnc3[nH]2)cc1` [Example 228, 5-(8-(4-(2-hydroxypropan-2-yl)phenyl)-9H-purin-6-yl)-2-((tetrahydro-2H-pyran-4-yl)oxy)benzonitrile] were, in that order, 8.79 and 7.84.
The like results for `CC(C)(O)c1ccc(-c2cc3c(-c4ccc(OC5CCOCC5)c(C#N)c4)c(F)cnc3[nH]2)cc1` [Example 173, 5-(5-fluoro-2-(4-(2-hydroxypropan-2-yl)phenyl)-1H-pyrrolo[2,3-b]pyridin-4-yl)-2-((tetrahydro-2H-pyran-4-yl)oxy)benzonitrile] were, in that order, 7.81 and 6.94.
For `N#Cc1cc(-c2ccnc3[nH]c(-c4ccc(N5CCOCC5)c(F)c4)cc23)ccc1OC1CCOCC1` [Example 77, 5-(2-(3-fluoro-4-morpholinophenyl)-1H-pyrrolo[2,3-b]pyridin-4-yl)-2-((tetrahydro-2H-pyran-4-yl)oxy)benzonitrile], the values for the pIC50 on TBK1 and at IKKε were 7.96 and 7.42, respectively.
